From publication PMC3597687 (Nucleic Acids Research, 2013) come the findings set out here.

The assay addresses T1, LysMSs (S. solfataricus LysM) (Saccharolobus solfataricus, UniProt Q980W9).
T1 sequence (Q980W9 1-142): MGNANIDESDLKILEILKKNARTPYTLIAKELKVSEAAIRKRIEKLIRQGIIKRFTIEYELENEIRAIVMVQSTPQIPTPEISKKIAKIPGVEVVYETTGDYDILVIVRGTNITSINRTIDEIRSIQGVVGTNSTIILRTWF
Description: EMSA, effect on LysM binding to […]-labelled gltB operator DNA. The settings on record: gltB control region 167-bp fragment. On the technique in general: A gel shift assay detects complexes by their altered migration in electrophoresis.

Consider `N=C(N)NOCC[C@H](N)C(=O)O` [L-canavanine], for which, for the setting “weak effector, mM range”, the “EMSA, effect on LysM binding to 32P-labelled gltB operator DNA” value (from here on “EMSA, effect on LysM binding”) was “The effect of L-canavanine and L-citrulline was less pronounced”. For the compound `NC(=O)NCCC[C@H](N)C(=O)O` [L-citrulline], where the note is “weak effector, mM range”, the “EMSA, effect on LysM binding” value was “The effect of L-canavanine and L-citrulline was less pronounced”. Regarding `NC(=O)CC[C@H](N)C(=O)O` [L-glutamine], for the setting “effector 5 mM, 250 nM LysM”, the “EMSA, effect on LysM binding” value was “arginine, glutamine, isoleucine, leucine, methionine and valine also specifically reduce LysM binding”. On the same count and under the same terms, the entry for `CC[C@H](C)[C@H](N)C(=O)O` [L-isoleucine] is “arginine, glutamine, isoleucine, leucine, methionine and valine also specifically reduce LysM binding”. For `CC(C)C[C@H](N)C(=O)O` [L-leucine], the “EMSA, effect on LysM binding” value (effector 5 mM, 250 nM LysM) is “arginine, glutamine, isoleucine, leucine, methionine and valine also specifically reduce LysM binding”. Same read-out and setting: to `CSCC[C@H](N)C(=O)O` [L-methionine] belongs “arginine, glutamine, isoleucine, leucine, methionine and valine also specifically reduce LysM binding”; to `CC(C)[C@H](N)C(=O)O` [L-valine], “arginine, glutamine, isoleucine, leucine, methionine and valine also specifically reduce LysM binding”.
